For data set [1] the following is noted: mice; cited from earlier work.
For data set [2] the following is noted: animal experiments; completely reversed by adding scopolamine; cited from earlier work.
In data set [3] the test system is collagen-induced arthritis. The following applies: rats; cited from earlier work.
For data set [4], the system named is LPS-induced TNFα release from human monocytes. Briefly: LPS-stimulated TNFα release from human monocytes (ELISA). Type of data set: cell-based. How it is done: The influence of monocompounds and their various combinations, also in three-in-one on TNF secretion was investigated by using human monocytes. The study was approved by our institutional Ethics Committee according to the International Declarations of Helsinki and Tokyo.
Peripheral blood mononuclear cells (PBMCs) were isolated from heparinized blood samples of healthy donors by density gradient centrifugation. An equal volume of Hanks buffer (Invitrogen, Heidelberg, Germany) was added to heparinized whole blood samples. […] A visible band containing PBMCs was transferred to a fresh tube and washed twice with Hanks-buffer. […] 5% CO2 overnight. Monocytes were isolated from other cells by adherence method, non-adherent cells were removed by changing the medium.
Cells were re-suspended at 10^6 cells/ml and incubated in 500 μl volumes in 24-well tissue culture plates (Falcon Becton Dickinson Labware, Heidelberg, Germany) at 37° C., 5% CO2. After pre-incubation with test substances (0.5 μl/500 μl medium) for 30 min, cells were stimulated with lipopolysaccharide (LPS) (Sigma, Deisenhofen, Germany) (1 μg/ml). After 24 h of incubation, cells were sedimented by centrifugation. The supernatants were harvested and kept frozen at −80° C. until protein determination.
Cytokine measurements in culture supernatants were done by sandwich ELISA using matched antibody pairs (BD Pharmingen, Heidelberg, Germany). ELISA plates (Maxisorb, Nunc, Wiesbaden, Germany) were coated overnight with anti-cytokine monoclonal antibody (mAb) in 0.1M carbonate buffer, pH 9.5. After being washed, plates were blocked with Assay Diluent (BD Pharmingen, Heidelberg, Germany) for 1 h and washed again. Appropriately diluted supernatant samples and standards were distributed in duplicates and the plates were incubated for 2 h at room temperature. Plates were washed, incubated for 1 h with working detector (biotinylated anti-cytokine antibody and Avidin-horseradish peroxidase conjugate) (BD Pharmingen, Heidelberg, Germany). After washing, substrate (TMB and hydrogen peroxide) was added. The reaction was stopped by adding of 1M H3PO4. Plates were read at 450 nm (reference 570 nm) in a microplate reader (Dynatech, Alexandria, USA). The results were expressed as a percentage of the control level of cytokines production by cells stimulated in the absence of the compound.
Background: ELISA stands for enzyme-linked immunosorbent assay.

For data set [5] the following is noted: dog, in vivo, 15 mg/kg; cited from earlier work.
Data set [6] relates to allergen-induced airway eosinophilia. Conditions: Brown Norway rats; administered directly into the lungs; cited from earlier work.
The next data set has as its system allergic conjunctivitis. The following applies: rats, administered topically into the eyes; cited from earlier work.
In another data set the test system is M1-M3 receptors. The following applies: cited from earlier work.
For the next data set, the target named is M3 muscarinic receptors (Homo sapiens, UniProt P20309). The following applies: kinetics studies; cited from earlier work.

In general, IC50 refers to the concentration that gives 50% inhibition.

Sequence of M3 muscarinic receptors (P20309 whole entry): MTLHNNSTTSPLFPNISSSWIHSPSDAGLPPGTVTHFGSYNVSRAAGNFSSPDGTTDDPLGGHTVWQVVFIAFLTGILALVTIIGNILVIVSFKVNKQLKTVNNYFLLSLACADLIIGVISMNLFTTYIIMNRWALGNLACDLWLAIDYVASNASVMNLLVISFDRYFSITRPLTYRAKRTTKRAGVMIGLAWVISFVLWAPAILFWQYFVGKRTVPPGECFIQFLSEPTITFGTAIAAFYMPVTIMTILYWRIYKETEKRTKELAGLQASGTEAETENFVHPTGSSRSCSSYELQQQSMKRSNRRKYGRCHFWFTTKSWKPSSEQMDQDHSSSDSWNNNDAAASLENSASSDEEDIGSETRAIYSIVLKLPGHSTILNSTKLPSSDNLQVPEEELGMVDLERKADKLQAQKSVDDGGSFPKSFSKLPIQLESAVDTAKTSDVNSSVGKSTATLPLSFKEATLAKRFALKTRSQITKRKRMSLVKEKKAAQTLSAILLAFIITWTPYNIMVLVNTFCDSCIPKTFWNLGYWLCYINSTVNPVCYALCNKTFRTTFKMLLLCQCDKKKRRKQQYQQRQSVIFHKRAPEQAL

For `COc1ccc(C2CNC(=O)C2)cc1OC1CCCC1` (stereo not shown) [rolipram], in data set [1], the “physiological bone formation and bone mass” value was “enhance physiological bone formation and thereby increase bone mass”. For the same compound, in [2], the “sedative effects (hypoactivity, decreased locomotion)” value was “induces sedative effects”. The “clinical and histological severity of collagen-induced arthritis” value in data set [3] is “reduced the clinical and histological severity”. The “IC35 for inhibition of TNFα release” value in [4] (IC35 determined instead of IC50 because maximum inhibition was around 70%) was found to be 68.9 ± 15.2 nM. For the same compound, in data set [4] (human monocytes, LPS 1 μg/ml, 24 h), the “maximum inhibition of TNFα release” value was “around 70%”.
As for `O=C(Nc1c(Cl)cncc1Cl)C(=O)c1cn(Cc2ccc(F)cc2)c2ccc(O)cc12` [AWD 12-281], the emesis entry in data set [5] is listed as “no emesis could be induced”. The “ID50 for suppression of allergen-induced airway eosinophilia” value in data set [6] is 7 µg/kg.
Turning to `C[C@H]1C[C@H]2[C@@H]3CCC4=CC(=O)C=C[C@]4(C)[C@@]3(Cl)[C@@H](O)C[C@]2(C)[C@@]1(O)C(=O)CO` [beclomethasone], in data set [6], the “ID50 for suppression of allergen-induced airway eosinophilia” value is 0.1 µg/kg.
As for `COc1cc(C(=O)NS(=O)(=O)c2ccccc2C)ccc1Cc1cn(C)c2ccc(NC(=O)OC3CCCC3)cc12` [Zafirlukast, zafirlukast], the “development of symptoms and mediator release” value in the data set with allergic conjunctivitis is listed as “effectively inhibit”.
In the case of `C[N+]1(C)CCC(OC(=O)C(O)(c2ccccc2)C2CCCC2)C1` (racemic) [glycopyrrolate, racemic glycopyrrolate], in the data set on M1-M3 receptors, the “selectivity in binding to the M1-M3 receptors” value is recorded as “no selectivity”. At M3 muscarinic receptors, the “dissociation from M3 muscarinic receptors” value is recorded as “dissociates slowly”.
With `CCCC1O[C@@H]2C[C@H]3[C@@H]4CCC5=CC(=O)C=C[C@]5(C)[C@H]4[C@@H](O)C[C@]3(C)[C@]2(C(=O)CO)O1` (stereo partly shown) [budesonide], in data set [4] (Monocyte, human monocytes, LPS 1 μg/ml, 24 h, read-out: IC50 for inhibition of TNFα release), the IC50 was determined as 0.55 ± 0.13 nM.
As to `C[N+]1(C)CC[C@@H](OC(=O)[C@](O)(c2ccccc2)C2CCCC2)C1.[Br-]` [R,R-glycopyrrolate], the “influence of the single substance on LPS-induced TNFα release” value in data set [4] (human monocytes, LPS 1 μg/ml, 24 h, concentrations up to 10 μM) is “did not influence”.

The values above are taken from patent publication US8048910B2, “Combination of R,R-glycopyrrolate, rolipram, and budesonide for the treatment of inflammatory diseases” (Meda Pharma GmbH & Co. KG, priority 2005, dated 2011).
